We go through 1 compound from patent US7405211B2, “Therapeutic morpholino-substituted compounds” (AstraZeneca AB, priority 2000, dated 2008).

Assay [1] relates to PI 3-kinase immunoprecipitated from human platelets. As to the kind of experiment: In vitro PI 3-kinase assay (32P incorporation into PI). The format is biochemical. Conditions: PI 3-kinase from human platelets, PI substrate. As for the experimental part:
The effect of TGX-25, TGX-33, TGX-37, TGX-40, TGX-41, TGX-57, TGX-84, TGX-90, TGX-93, TGX-98, TGX-99, TGX-101, TGX-106, TGX-107, TGX-108, TGX-109, TGX-111, TGX-112, TGX-113, TGX-115, TGX-120, TGX-121, TGX-123, TGX-124, TGX-126, TGX-127, TGX-130 or TGX-131on PI 3-kinase activity was determined using an in vitro PI 3-kinase assay. This assay was performed using PI 3-kinase immunoprecipitated from human platelets as the enzyme and PI as the substrate. The PI 3-kinase activity was quantitated by measuring the enzymatic incorporation of [^32P] into PI, forming PI([^32P]-3)P, as previously described (Susa et al., 1992, The Journal of Biological Chemistry 267(32):22951-22956.
Washed human platelets were lysed in Triton X-100 lysis buffer (10 mM Tris, pH 7.4, 1% Triton X-100, 2 mM EDTA, 1 mM PMSF) for 30 minutes. The Triton X-100 insoluble fraction was removed by centrifugation of the cell lysates at 15,000 g for 10 minutes. PI 3-kinase was immunoprecipitated by mixing 500 μg of the cell lysate with 1 μg of a rabbit anti-rat antibody against the p85/110 form of PI 3-kinase and 30 μl of 50% Protein A-sepharose beads for 2 hours at 4° C. The Protein A-sepharose-bound PI 3-kinase was isolated by pelleting the beads at 15,000 g for 5 seconds, and washing three times with ice-old Triton X-100 lysis buffer followed by four washes with PI 3-kinase assay buffer (20 mM HEPES, pH 7.4, 1 mM EGTA, 5 mM MgCl2).
PI stored in CHCl3 was dried under N2, resuspended in the lipid buffer (50 mM HEPES, pH 7.2, 1 mM EDTA) at a final concentration of 330 μg/ml, and sonicated for 6 minutes on ice. PI([^32P]-3)P was generated by mixing the immunoprecipitated PI 3-kinase for 20 minutes with 40 μl of the PI, 10 μl of ATP (1 mM) and ^32P-r-ATP (0.5 μCi, 1 μCi/nmol), 10 μl of 10× kinase buffer, in a final assay volume of 100 μl adjusted with H2O. TGX-25, TGX-33, TGX-37, TGX-40, TGX-41, TGX-57, TGX-84, TGX-90, TGX-93, TGX-98, TGX-99, TGX-101, TGX-106, TGX-107, TGX-108, TGX-109, TGX-111, TGX-112, TGX-113, TGX-115, TGX-120, TGX-121, TGX-123, TGX-124, TGX-126, TGX-127, TGX-130 or TGX-131 was preincubated with the PI 3-kinase for 5 minutes prior to the addition of ATP. The assay was terminated with 100 μl of 1 N HCl, and the PI([^32P]-3)P product extracted with 200 μl chloroform:methanol (1:1) and 500 μl 2 M KCl. The PI([^32P]-3)P in the chloroform phase was resolved by thin layer chromatography using a solvent system containing CHCl3:MeOH:HAC:H2O (43:38:5:7) (v:v:v:v), and visualized by autoradiography. The PI([^32P]-3)P spots were then scraped off from the TLC plates, deacylated with 1 ml methylamine:butanol:methanol (42:9:47) (v:v:v) for 4 hours at 53° C., and quantitated using a liquid scintillation counter (LKB 1209 RackBETA).

The subject of assay [2] is platelet thrombus formation. The assay can be described thus: Platelet thrombus formation under flow, citrated whole blood, vWf-coated microcapillary tubes (LDH). The format is cell-based. Particulars: 50, 100, 200 μM, 600 s^−1. The procedure:
Citrated whole blood was pretreated with 50, 100 or 200 μM TGX-84, or control buffer (0.1% DMSO) for 10 minutes at 37° C. Blood was perfused through von Willebrand factor-(vWf) coated microcapillary tubes for 2 minutes at 600 s^−1. Non-adherent cells were removed by perfusion of buffer for 2 minutes at 600 s^−1 and any adherent erythrocytes lysed through treatment with 1% ammonium oxalate. Adherent platelets were then lysed through addition of 1% Triton X-100 and lactate dehydrogenase (LDH) levels (U/L) analysed by spectrophotometry.

For another assay, the target named is PI3K α/β isoforms. As to the kind of experiment: In vitro enzyme assay PI3K α/β. The assay is classed as biochemical. Particulars: immunoprecipitated from platelet lysate. As for the experimental part: (§1) In vitro enzyme assays were conducted as a primary screen to determine drug candidate isoform affinity and specificity.
(§2) The α and β isoforms of the PI3K were immunoprecipitated from a platelet lysate using an antibody that recognised the p85 regulatory subunit common to both forms of the enzyme. The γ isoform was produced as a recombinant protein in the Thrombogenix laboratories. […] Standard phosphorylation assays using phosphatidylinositol and ^32P were used to measure the enzyme activity in the immunoprecipates in the presence or absence of an inhibitor. Enzyme activity was determined over a range of inhibitor concentrations to establish an IC50 value.

The target in a further assay is T1, PI3K γ (Homo sapiens, UniProt P48736).
T1 construct: made in house
T1 sequence (P48736 whole entry, species assumed): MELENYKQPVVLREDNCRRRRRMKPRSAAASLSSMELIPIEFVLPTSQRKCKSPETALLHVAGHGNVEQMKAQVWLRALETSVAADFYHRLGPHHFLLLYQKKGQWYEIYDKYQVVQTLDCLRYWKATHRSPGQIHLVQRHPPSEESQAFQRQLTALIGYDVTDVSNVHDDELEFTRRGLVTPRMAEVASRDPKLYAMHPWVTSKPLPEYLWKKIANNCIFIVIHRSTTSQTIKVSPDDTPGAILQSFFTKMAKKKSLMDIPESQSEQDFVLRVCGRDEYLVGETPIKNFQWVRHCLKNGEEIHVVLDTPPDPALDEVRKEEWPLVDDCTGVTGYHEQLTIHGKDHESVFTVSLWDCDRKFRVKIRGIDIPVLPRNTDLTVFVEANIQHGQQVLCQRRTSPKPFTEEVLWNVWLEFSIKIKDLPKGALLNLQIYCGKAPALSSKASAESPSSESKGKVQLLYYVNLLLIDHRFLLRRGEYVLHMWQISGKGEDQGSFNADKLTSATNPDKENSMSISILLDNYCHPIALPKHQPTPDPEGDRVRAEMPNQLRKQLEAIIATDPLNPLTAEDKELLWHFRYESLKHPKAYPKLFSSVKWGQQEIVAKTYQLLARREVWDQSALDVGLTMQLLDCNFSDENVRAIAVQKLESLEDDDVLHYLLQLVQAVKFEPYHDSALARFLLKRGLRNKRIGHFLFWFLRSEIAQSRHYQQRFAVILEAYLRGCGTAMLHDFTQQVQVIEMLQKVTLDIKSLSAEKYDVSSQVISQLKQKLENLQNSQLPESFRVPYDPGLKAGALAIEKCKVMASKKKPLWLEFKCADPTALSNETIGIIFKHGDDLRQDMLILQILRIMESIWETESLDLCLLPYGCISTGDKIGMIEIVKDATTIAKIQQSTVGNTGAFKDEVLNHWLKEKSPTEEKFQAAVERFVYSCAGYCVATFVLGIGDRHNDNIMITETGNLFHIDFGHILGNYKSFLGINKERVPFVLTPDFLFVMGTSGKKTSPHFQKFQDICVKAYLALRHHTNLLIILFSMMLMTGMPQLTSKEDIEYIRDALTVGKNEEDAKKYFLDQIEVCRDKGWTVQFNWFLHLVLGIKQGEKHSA
As to the kind of experiment: In vitro enzyme assay PI3K γ (recombinant). The assay is classed as biochemical. Particulars: recombinant γ isoform. As for the experimental part: as §1, §2

The target in another assay is T2, PI4K.
T2 construct: PI4K was isolated from platelets in a similar manner using a PI4K specific antibody
As to the kind of experiment: In vitro enzyme assay PI4K. Particulars: PI4K isolated from platelets; read-out: IC50 against PI4K. The assay is classed as biochemical. As for the experimental part:
In vitro enzyme assays were conducted as a primary screen to determine drug candidate isoform affinity and specificity. The affinity of two leading compounds of the quinolone series (TGX84 and TGX155) for a closely related enzyme family, PI4K, was also determined to maximise compound specificity and therefore minimise potential adverse biochemical events.
The α and β isoforms of the PI3K were immunoprecipitated from a platelet lysate using an antibody that recognised the p85 regulatory subunit common to both forms of the enzyme. The γ isoform was produced as a recombinant protein in the Thrombogenix laboratories. PI4K was isolated from platelets in a similar manner using a PI4K specific antibody. Standard phosphorylation assays using phosphatidylinositol and ^32P were used to measure the enzyme activity in the immunoprecipates in the presence or absence of an inhibitor. Enzyme activity was determined over a range of inhibitor concentrations to establish an IC50 value.

The next assay has as its target tyrosine kinase EGF (Homo sapiens, UniProt P00533). As to the kind of experiment: Enzyme screening assay: tyrosine kinase EGF. The format is biochemical. From the text: (§3) The two leading compounds of the quinolone series, TGX155 and TGX84 were screened for activity against seven enzymes related to PI3K in function or substrate specificity, viz: ATPase, PDE4, tyrosine kinases EGF and fyn, protein kinases A and C, and tyrosine phosphatase.

A further assay concerns the target tyrosine kinase fyn (Homo sapiens, UniProt P06241). The assay can be described thus: Enzyme screening assay: tyrosine kinase fyn. The format is biochemical.
Source text: as §3

Some results are limits rather than exact numbers.

tyrosine kinase EGF, sequence (P00533 25-1210): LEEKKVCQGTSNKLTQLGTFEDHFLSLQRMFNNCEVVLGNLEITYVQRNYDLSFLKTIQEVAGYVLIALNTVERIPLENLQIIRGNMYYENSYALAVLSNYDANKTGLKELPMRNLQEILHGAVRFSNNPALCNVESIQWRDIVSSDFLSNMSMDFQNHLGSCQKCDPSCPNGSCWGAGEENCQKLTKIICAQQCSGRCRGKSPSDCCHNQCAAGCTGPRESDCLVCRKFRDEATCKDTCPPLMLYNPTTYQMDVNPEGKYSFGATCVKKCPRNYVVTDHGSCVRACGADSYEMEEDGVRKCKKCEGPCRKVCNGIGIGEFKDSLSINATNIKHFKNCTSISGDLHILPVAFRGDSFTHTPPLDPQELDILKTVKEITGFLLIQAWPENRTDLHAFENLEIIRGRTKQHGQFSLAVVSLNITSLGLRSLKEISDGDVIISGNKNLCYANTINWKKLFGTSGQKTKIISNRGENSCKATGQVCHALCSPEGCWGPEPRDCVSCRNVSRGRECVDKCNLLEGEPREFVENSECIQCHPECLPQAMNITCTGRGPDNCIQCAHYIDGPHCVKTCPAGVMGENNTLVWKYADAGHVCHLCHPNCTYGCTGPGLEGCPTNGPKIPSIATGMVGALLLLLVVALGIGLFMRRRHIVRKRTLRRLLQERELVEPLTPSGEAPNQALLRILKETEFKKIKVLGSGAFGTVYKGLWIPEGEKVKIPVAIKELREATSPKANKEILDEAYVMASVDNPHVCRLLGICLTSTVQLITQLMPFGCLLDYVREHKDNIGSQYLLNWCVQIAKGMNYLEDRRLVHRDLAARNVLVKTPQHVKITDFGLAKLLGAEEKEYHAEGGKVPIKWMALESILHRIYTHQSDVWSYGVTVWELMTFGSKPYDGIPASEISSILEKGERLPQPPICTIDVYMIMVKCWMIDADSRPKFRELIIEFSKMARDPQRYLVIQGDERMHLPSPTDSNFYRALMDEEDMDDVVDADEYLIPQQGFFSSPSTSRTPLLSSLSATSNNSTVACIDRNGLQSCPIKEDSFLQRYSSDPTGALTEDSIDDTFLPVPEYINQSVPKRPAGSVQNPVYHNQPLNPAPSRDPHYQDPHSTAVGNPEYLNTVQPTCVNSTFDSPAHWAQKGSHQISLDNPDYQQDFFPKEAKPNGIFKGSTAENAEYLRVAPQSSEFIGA
tyrosine kinase fyn, sequence (P06241 whole entry): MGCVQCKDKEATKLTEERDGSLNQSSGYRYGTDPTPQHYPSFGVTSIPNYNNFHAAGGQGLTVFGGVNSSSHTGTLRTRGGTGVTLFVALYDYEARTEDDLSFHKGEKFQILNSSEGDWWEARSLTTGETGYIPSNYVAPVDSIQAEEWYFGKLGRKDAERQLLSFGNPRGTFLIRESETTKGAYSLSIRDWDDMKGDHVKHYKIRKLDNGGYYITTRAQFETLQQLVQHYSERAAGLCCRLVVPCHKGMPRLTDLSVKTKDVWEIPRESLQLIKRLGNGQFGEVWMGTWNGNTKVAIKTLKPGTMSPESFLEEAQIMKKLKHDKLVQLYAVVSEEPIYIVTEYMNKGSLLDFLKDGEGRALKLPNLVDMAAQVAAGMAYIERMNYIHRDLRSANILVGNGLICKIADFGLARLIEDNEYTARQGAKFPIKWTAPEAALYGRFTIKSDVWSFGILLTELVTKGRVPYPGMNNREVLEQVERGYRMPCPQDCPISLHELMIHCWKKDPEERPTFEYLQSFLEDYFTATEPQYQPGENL

For the compound `O=c1cc(N2CCOCC2)[nH]c2c(Oc3ccccc3)cccc12` [TGX-84, 2-Morpholino-8-phenoxy-4-quinolone], the IC50 in assay [1] is 0.1 µM; against PI3K α/β isoforms it was 0.1 µM; on PI3K γ, 5 µM; at PI4K, 100 µM; at tyrosine kinase EGF, over 100 µM; at tyrosine kinase fyn, over 100 µM. For the same compound, in assay [2], the “thrombosis formation relative to control” value was “decrease in thrombosis formation relative to control”.
